Experimental data reported in paper PMC6054628.

Columns and labels:
[1] = Head-to-tail native chemical ligation in two-module microfluidic flow: SEAon peptide amide rearranged to SEAE thioester (pH 1, TCEP, 60 min, 90 or 65 C), then MPAA (0.4 M)/Na2HPO4 (0.2 M) pH 7.3 cyclisation onto N-terminal Cys; conditions: 30-membered ring, water (phosphate buffer, MPAA, TCEP; decane segmented carrier; 6 M Gn.HCl for 4l-p), 0.6 mM, 37.0 °C, 0.067 h, 2 steps
[2] = Head-to-tail native chemical ligation in two-module microfluidic flow: SEAon peptide amide rearranged to SEAE thioester (pH 1, TCEP, 60 min, 90 or 65 C), then MPAA (0.4 M)/Na2HPO4 (0.2 M) pH 7.3 cyclisation onto N-terminal Cys, 4 min; conditions: 30-membered ring, water (phosphate buffer, MPAA, TCEP; decane segmented carrier), 0.6 mM, 37.0 °C, 0.067 h, 2 steps, scale: %
[3] = from CC[C@H](C)[C@H](NC(=O)[C@@H](N)CS)C(=O)N[C@@H](CC(C)C)C(=O)N[C@@H](CC(=O)O)C(=O)NCC(=O)N1CCC[C@H]1C(=O)N[C@H](C(=O)N[C@@H](Cc1c[nH]cn1)C(=O)NCC(=O)N[C@H](C(=O)SCCNCCS)C(C)C)C(C)C
[4] = from CC[C@H](C)[C@H](NC(=O)[C@@H](N)CS)C(=O)N[C@@H](CC(C)C)C(=O)N[C@@H](CCCCN)C(=O)N[C@@H](CCC(=O)O)C(=O)NCC(=O)N[C@H](C(=O)N[C@@H](Cc1c[nH]cn1)C(=O)NCC(=O)N[C@H](C(=O)SCCNCCS)[C@@H](C)O)C(C)C

Row | Structure (SMILES) | ring closure, yield over several steps [1, 3] | ring closure, conversion by HPLC [2, 3] | ring closure, yield over several steps [1, 4] | ring closure, conversion by HPLC [2, 4]
1 | CC[C@H](C)[C@@H]1NC(=O)[C@H](CS)NC(=O)[C@H](C(C)C)NC(=O)CNC(=O)[C@H](Cc2c[nH]cn2)NC(=O)[C@H](C(C)C)NC(=O)[C@@H]2CCCN2C(=O)CNC(=O)[C@H](CC(=O)O)NC(=O)[C@H](CC(C)C)NC1=O [H-CILDGPVHGV-SEAon (via SEAE thioester)] | 37% | 43 |  | 
2 | CC[C@H](C)[C@@H]1NC(=O)[C@H](CS)NC(=O)[C@H]([C@@H](C)O)NC(=O)CNC(=O)[C@H](Cc2c[nH]cn2)NC(=O)[C@H](C(C)C)NC(=O)CNC(=O)[C@H](CCC(=O)O)NC(=O)[C@H](CCCCN)NC(=O)[C@H](CC(C)C)NC1=O [H-CILKEGVHGT-SEAon (via SEAE thioester)] |  |  | 49% | 73
